Patent US20160215305A1, “Process of Fermenting A Lignocellulosic Biomass” (priority 2015, published 2016)
Several values for one entry are separate records, joined by “and”; a condition that tells them apart may be missing. Equal entries are not always repeated.

Tested on: S. cerevisiae
Experiment: Batch fermentation of amino acid detoxified loblolly pine hydrolysates by Baker yeast
Assay type: cell-based, Saccharomyces cerevisiae
Conditions: pH 6.0, 60° C.; for CEtOH, ethanol final concentration at 48 h / CHMF, percentage of HMF consumed at 48 h / QEtOH, volumetric ethanol productivity in the first 6 h / RG, glucose consumption rate in the first 6 h / RM, mannose consumption rate in the first 6 h / YEtOH, ethanol yield from total glucose and mannose at 48 h: hydrolysates detoxified with amino acid 0.2% w/v, 2 hours
Excerpt: Loblolly pine (Pinus taeda) wood chips (1.0×1.0 cm, L×W) were collected by Forest Products Laboratory at Auburn University, located in Auburn, Ala. Dilute acid pretreatment was used to produce biomass hydrolysates in a 4.0 L Parr batch reactor (Parr Instrument Co., Moline, Ill.) as previously described (Lai, C. H., Tu, M. B., Li, M., Yu, S. Y. 2014. Remarkable solvent and extractable lignin effects on enzymatic digestibility of organosolv pretreated hardwood. Bioresource Technology, 156, 92-98). Briefly, wood chips (400 grams, dry weight) were soaked in 1% (w/w) sulfuric acid overnight (7:1 liquor/solid ratio) prior to the pretreatment, and then loaded into a reactor and treated at 170° C. for 60 minutes.
To achieve higher ethanol titer in fermentation, loblolly pine hydrolysates were concentrated to approximately one-third of its original volume using a rotary evaporator (IKA RV10 basic) at 40° C. and 60 rotations per minute (rpm). The hydrolysates were first adjusted to pH 4.0 before evaporation. After the concentration, the sugar contents of the hydrolysates were analyzed by HPLC.
[…] The detoxification experiments were performed in a 250 mL flask and placed in a temperature-controlled water batch.
Baker yeast (Fleischmann's), S. cerevisiae, was used for all the fermentation experiments in this study. The yeast was maintained on YDP medium containing (g/L): 20 glucose, 20 peptone, 10 yeast extract and 20 agar. Isolated colony was grown in YDP liquid medium overnight and harvested as fermentation inoculum. The yeast concentration was measured using an UV-vis spectrophotometer. Inoculum of 2.0 g/L was used for all fermentation experiments.
Batch fermentation was carried out in 125 mL serum bottles containing 50 mL broths (untreated or detoxified hydrolysates, untreated or detoxified cinnamaldehyde sugar solution) without any additional nutrient supplement. All the fermentation broths were adjusted to pH 6 with NaOH or H2SO4 and sterilized by passing 0.2 μm sterile filters. After inoculation, the serum bottle was sealed with rubber stopper and aluminum seal, and equipped with cannulas for CO2 release. All fermentation experiments were incubated at 30° C., spun at 150 rpm in a shaker (E24, New Brunswick Scientific). Aliquots of samples were withdrawn at 0, 1, 3, 6, 9, 12, 24, 36 and 48 hours for the time course analysis of both starting material and products. Fermentation was carried out in duplicate. The volumetric ethanol productivity and initial consumption rate of glucose (RG) and mannose (RM) was calculated based on the sugar consumed in the first 6 h of fermentation as described previously (Cao, D. X., Tu, M. B., Xie, R., Li, J., Wu, Y. N., Adhikari, S. 2014. Inhibitory Activity of Carbonyl Compounds on Alcoholic Fermentation by Saccharomyces cerevisiae. Journal of Agricultural and Food Chemistry, 62(4), 918-926).
Ethanol, acetic acid, levulinic acid, formic acid, furfural and HMF were analyzed using an Aminex HPX-87H column (300×7.8 mm) with a refractive index detector. The elution conditions were column temperature of 45° C. and flow rate of 0.6 ml/min with 5.0 mM H2SO4 as the mobile phase in a 60 min isocratic run.

C[C@H](N)C(=O)O [Alanine, alanine]
CEtOH, ethanol final concentration at 48 h: 2.14 ± 0.01 g/L | CHMF, percentage of HMF consumed at 48 h: 11.03 ± 1.64% | QEtOH, volumetric ethanol productivity in the first 6 h: 0.28 ± 0.00 g/L/h | RG, glucose consumption rate in the first 6 h: 0.21 ± 0.02 g/L/h | RM, mannose consumption rate in the first 6 h: 0.44 ± 0.07 g/L/h | YEtOH, ethanol yield from total glucose and mannose at 48 h: 0.04 ± 0.00 g/g

N=C(N)NCCC[C@H](N)C(=O)O [Arginine, arginine]
CEtOH, ethanol final concentration at 48 h: 2.62 ± 0.03 g/L | CHMF, percentage of HMF consumed at 48 h: 12.69 ± 0.27% | QEtOH, volumetric ethanol productivity in the first 6 h: 0.34 ± 0.01 g/L/h | RG, glucose consumption rate in the first 6 h: 0.29 ± 0.02 g/L/h | RM, mannose consumption rate in the first 6 h: 0.59 ± 0.07 g/L/h | YEtOH, ethanol yield from total glucose and mannose at 48 h: 0.05 ± 0.00 g/g

NC(=O)C[C@H](N)C(=O)O [Asparagine, asparagine]
CEtOH, ethanol final concentration at 48 h: 11.18 ± 0.15 g/L | QEtOH, volumetric ethanol productivity in the first 6 h: 0.58 ± 0.01 g/L/h | RG, glucose consumption rate in the first 6 h: 0.65 ± 0.01 g/L/h | RM, mannose consumption rate in the first 6 h: 0.87 ± 0.10 g/L/h | CEtOH, ethanol final concentration at 48 h (listed as asparagine): 11.18 g/L | RG, glucose consumption rate in the first 6 h (listed as asparagine): 0.65 g/L/h | RM, mannose consumption rate in the first 6 h (listed as asparagine): 0.87 g/L/h

N[C@@H](CC(=O)O)C(=O)O [Aspartate, aspartate]
CEtOH, ethanol final concentration at 48 h: 3.86 ± 0.18 g/L | CHMF, percentage of HMF consumed at 48 h: 16.27 ± 0.30% | QEtOH, volumetric ethanol productivity in the first 6 h: 0.47 ± 0.00 g/L/h | RG, glucose consumption rate in the first 6 h: 0.43 ± 0.02 g/L/h | RM, mannose consumption rate in the first 6 h: 0.90 ± 0.01 g/L/h | YEtOH, ethanol yield from total glucose and mannose at 48 h: 0.07 ± 0.00 g/g

N[C@@H](CCC(=O)O)C(=O)O [Glutamate, glutamate]
CEtOH, ethanol final concentration at 48 h: 3.63 ± 0.23 g/L | CHMF, percentage of HMF consumed at 48 h: 15.40 ± 0.72% | QEtOH, volumetric ethanol productivity in the first 6 h: 0.41 ± 0.01 g/L/h | RG, glucose consumption rate in the first 6 h: 0.34 ± 0.02 g/L/h | RM, mannose consumption rate in the first 6 h: 0.56 ± 0.03 g/L/h | YEtOH, ethanol yield from total glucose and mannose at 48 h: 0.07 ± 0.00 g/g

NC(=O)CC[C@H](N)C(=O)O [Glutamine, glutamine]
CEtOH, ethanol final concentration at 48 h: 3.52 ± 0.06 g/L | CHMF, percentage of HMF consumed at 48 h: 13.38 ± 0.99% | QEtOH, volumetric ethanol productivity in the first 6 h: 0.40 ± 0.00 g/L/h | RG, glucose consumption rate in the first 6 h: 0.38 ± 0.02 g/L/h | RM, mannose consumption rate in the first 6 h: 0.73 ± 0.01 g/L/h | YEtOH, ethanol yield from total glucose and mannose at 48 h: 0.06 ± 0.01 g/g

N[C@@H](Cc1c[nH]cn1)C(=O)O [Histidine, histidine]
CEtOH, ethanol final concentration at 48 h: 23.07 ± 0.35 g/L | QEtOH, volumetric ethanol productivity in the first 6 h: 0.78 ± 0.00 g/L/h | RG, glucose consumption rate in the first 6 h: 0.94 ± 0.00 g/L/h | RM, mannose consumption rate in the first 6 h: 1.02 ± 0.01 g/L/h | YEtOH, ethanol yield from total glucose and mannose at 48 h: 0.42 ± 0.01 g/g | CEtOH, ethanol final concentration at 48 h (listed as histidine): 23.07 g/L | RG, glucose consumption rate in the first 6 h (listed as histidine): 0.94 g/L/h | RM, mannose consumption rate in the first 6 h (listed as histidine): 1.02 g/L/h | YEtOH, ethanol yield from total glucose and mannose at 48 h (listed as histidine): 0.42 g/g | sugar consumption rate (glucose and mannose) less than those from cysteine detoxification (2 hours detoxification): 50%

CC[C@H](C)[C@H](N)C(=O)O [Isoleucine, isoleucine]
CEtOH, ethanol final concentration at 48 h: 5.03 ± 1.46 g/L | CHMF, percentage of HMF consumed at 48 h: 17.36 ± 3.50% | QEtOH, volumetric ethanol productivity in the first 6 h: 0.44 ± 0.08 g/L/h | RG, glucose consumption rate in the first 6 h: 0.37 ± 0.02 g/L/h | RM, mannose consumption rate in the first 6 h: 0.66 ± 0.06 g/L/h | YEtOH, ethanol yield from total glucose and mannose at 48 h: 0.09 ± 0.03 g/g

CC(C)C[C@H](N)C(=O)O [Leucine, leucine]
CEtOH, ethanol final concentration at 48 h: 2.83 ± 0.19 g/L | CHMF, percentage of HMF consumed at 48 h: 12.84 ± 1.32% | QEtOH, volumetric ethanol productivity in the first 6 h: 0.34 ± 0.01 g/L/h | RG, glucose consumption rate in the first 6 h: 0.27 ± 0.04 g/L/h | RM, mannose consumption rate in the first 6 h: 0.64 ± 0.12 g/L/h | YEtOH, ethanol yield from total glucose and mannose at 48 h: 0.05 ± 0.00 g/g

NCCCC[C@H](N)C(=O)O [Lysine, lysine]
CEtOH, ethanol final concentration at 48 h: 14.40 ± 0.57 g/L | QEtOH, volumetric ethanol productivity in the first 6 h: 0.72 ± 0.01 g/L/h | RG, glucose consumption rate in the first 6 h: 0.80 ± 0.06 g/L/h | RM, mannose consumption rate in the first 6 h: 1.09 ± 0.13 g/L/h | CEtOH, ethanol final concentration at 48 h (listed as lysine): 14.40 g/L | RG, glucose consumption rate in the first 6 h (listed as lysine): 0.80 g/L/h | RM, mannose consumption rate in the first 6 h (listed as lysine): 1.09 g/L/h

CSCC[C@H](N)C(=O)O [Methionine, methionine]
CEtOH, ethanol final concentration at 48 h: 3.11 ± 0.02 g/L | CHMF, percentage of HMF consumed at 48 h: 12.78 ± 0.10% | QEtOH, volumetric ethanol productivity in the first 6 h: 0.31 ± 0.00 g/L/h | RG, glucose consumption rate in the first 6 h: 0.27 ± 0.01 g/L/h | RM, mannose consumption rate in the first 6 h: 0.63 ± 0.02 g/L/h | YEtOH, ethanol yield from total glucose and mannose at 48 h: 0.06 ± 0.00 g/g

N[C@@H](Cc1ccccc1)C(=O)O [Phenylalanine, phenylalanine]
CEtOH, ethanol final concentration at 48 h: 1.87 ± 0.02 g/L | CHMF, percentage of HMF consumed at 48 h: 12.69 ± 1.12% | QEtOH, volumetric ethanol productivity in the first 6 h: 0.28 ± 0.00 g/L/h | RG, glucose consumption rate in the first 6 h: 0.24 ± 0.01 g/L/h | RM, mannose consumption rate in the first 6 h: 0.56 ± 0.01 g/L/h | YEtOH, ethanol yield from total glucose and mannose at 48 h: 0.03 ± 0.00 g/g

O=C(O)[C@@H]1CCCN1 [Proline, proline]
CEtOH, ethanol final concentration at 48 h: 3.12 ± 0.13 g/L | CHMF, percentage of HMF consumed at 48 h: 13.35 ± 1.05% | QEtOH, volumetric ethanol productivity in the first 6 h: 0.33 ± 0.00 g/L/h | RG, glucose consumption rate in the first 6 h: 0.27 ± 0.05 g/L/h | RM, mannose consumption rate in the first 6 h: 0.67 ± 0.18 g/L/h | YEtOH, ethanol yield from total glucose and mannose at 48 h: 0.06 ± 0.00 g/g

N[C@@H](CO)C(=O)O [Serine, serine]
CEtOH, ethanol final concentration at 48 h: 3.87 ± 0.08 g/L | CHMF, percentage of HMF consumed at 48 h: 15.66 ± 0.11% | QEtOH, volumetric ethanol productivity in the first 6 h: 0.45 ± 0.00 g/L/h | RG, glucose consumption rate in the first 6 h: 0.38 ± 0.00 g/L/h | RM, mannose consumption rate in the first 6 h: 0.65 ± 0.13 g/L/h | YEtOH, ethanol yield from total glucose and mannose at 48 h: 0.07 ± 0.00 g/g

C[C@@H](O)[C@H](N)C(=O)O [Threonine, threonine]
CEtOH, ethanol final concentration at 48 h: 3.96 ± 0.13 g/L | CHMF, percentage of HMF consumed at 48 h: 16.19 ± 0.87% | QEtOH, volumetric ethanol productivity in the first 6 h: 0.41 ± 0.01 g/L/h | RG, glucose consumption rate in the first 6 h: 0.36 ± 0.02 g/L/h | RM, mannose consumption rate in the first 6 h: 0.67 ± 0.03 g/L/h | YEtOH, ethanol yield from total glucose and mannose at 48 h: 0.07 ± 0.00 g/g

N[C@@H](Cc1c[nH]c2ccccc12)C(=O)O [Tryptophan, tryptophan]
CEtOH, ethanol final concentration at 48 h: 11.59 ± 0.25 g/L | QEtOH, volumetric ethanol productivity in the first 6 h: 0.63 ± 0.01 g/L/h | RG, glucose consumption rate in the first 6 h: 0.69 g/L/h and 0.69 ± 0.00 g/L/h | RM, mannose consumption rate in the first 6 h: 0.89 g/L/h and 0.89 ± 0.04 g/L/h | CEtOH, ethanol final concentration at 48 h (listed as tryptophan): 11.59 g/L

N[C@@H](Cc1ccc(O)cc1)C(=O)O [Tyrosine, tyrosine]
CEtOH, ethanol final concentration at 48 h: 2.16 ± 0.25 g/L | CHMF, percentage of HMF consumed at 48 h: 12.17 ± 0.92% | QEtOH, volumetric ethanol productivity in the first 6 h: 0.30 ± 0.02 g/L/h | RG, glucose consumption rate in the first 6 h: 0.25 ± 0.02 g/L/h | RM, mannose consumption rate in the first 6 h: 0.59 ± 0.05 g/L/h | YEtOH, ethanol yield from total glucose and mannose at 48 h: 0.04 ± 0.00 g/g

CC(C)[C@H](N)C(=O)O [Valine, valine]
CEtOH, ethanol final concentration at 48 h: 2.69 ± 0.18 g/L | CHMF, percentage of HMF consumed at 48 h: 12.66 ± 1.50% | QEtOH, volumetric ethanol productivity in the first 6 h: 0.32 ± 0.00 g/L/h | RG, glucose consumption rate in the first 6 h: 0.25 ± 0.00 g/L/h | RM, mannose consumption rate in the first 6 h: 0.49 ± 0.03 g/L/h | YEtOH, ethanol yield from total glucose and mannose at 48 h: 0.05 ± 0.00 g/g
